From ChEMBL document CHEMBL1146023, “Similar structure-activity relationships of quinoline derivatives for antiprion and antimalarial effects” (J Med Chem, 2006)
Activity calls are given as the source filed them. No cut-off for these calls is given here.

Key:
[1] = Toxicity against MRC5 cell line; assay type: cell-based; details: human, MRC5 cells
ScN2a [2] = test: Inhibition of scrapie prion formation in mouse ScN2a cell line; assay type: functional
ScN2a [3] = test: Selectivity index, toxicity against ScN2a cell line/EC50 for scrapie prion formation in mouse ScN2a cell line; assay type: functional
ScN2a [4] = test: Toxicity against ScN2a cell line; assay type: cell-based; details: mouse
ScN2a [5] = test: Inhibition of scrapie prion formation in mouse ScN2a cell line relative to control; assay type: functional, cell-based
MRC5 = test: Selectivity index, toxicity against MRC5 cell line/EC50 for scrapie prion formation in mouse ScN2a cell line; assay type: functional
ScN2a [6] = test: Inhibition of scrapie prion formation in mouse ScN2a cell line at 200 nM; assay type: functional, cell-based
Plasmodium falciparum [7] = test: microbe, parasite or virus in culture; details: FcB1
Plasmodium falciparum [8] = test: Antimalarial activity against chloroquine-resistant Plasmodium falciparum FcB1 at 100 nM; assay type: functional
ScN2a [9] = test: Toxicity against ScN2a cell line at 10 uM; assay type: cell-based; details: mouse

COc1ccc(C(=O)NCCCN2CCN(CCCNc3ccnc4cc(Cl)ccc34)CC2)cc1
CC50 [1]: 4000 nM | Activity (ScN2a [2]): 300 nM | Selectivity index (ScN2a [3]): 30 | Activity (ScN2a [4]): 3000 nM | EC50 (ScN2a [5]): 100 nM | Selectivity index (MRC5): 40

CC(C)(C)c1ccc(C(=O)NCCCN2CCN(CCCNc3ccnc4cc(Cl)ccc34)CC2)cc1
Activity (ScN2a [2]): 200 nM | Selectivity index (ScN2a [3]): 10 | Activity (ScN2a [4]): 1000 nM | EC50 (ScN2a [5]): 100 nM | Activity (ScN2a [6]): Active | IC50 (Plasmodium falciparum [7]): 54.8 nM

O=S(=O)(NCCCN1CCN(CCCNc2ccnc3cc(Cl)ccc23)CC1)c1ccc(Cl)cc1
inhibition at 0.1 µM (Plasmodium falciparum [8]): 26% | Activity (ScN2a [2]): 500 nM | Selectivity index (ScN2a [3]): 8 | Activity (ScN2a [4]): 2000 nM | EC50 (ScN2a [5]): 250 nM

O=C(NCCCN1CCN(CCCNc2ccnc3cc(Cl)ccc23)CC1)C1c2ccccc2Oc2ccccc21
inhibition at 0.1 µM (Plasmodium falciparum [8]): 11% | Activity (ScN2a [2]): 300 nM | Selectivity index (ScN2a [3]): 7.5 | Activity (ScN2a [4]): 750 nM | EC50 (ScN2a [5]): 100 nM

O=C(NCCCN1CCN(CCCNc2ccnc3cc(Cl)ccc23)CC1)c1ccncc1
inhibition at 0.1 µM (Plasmodium falciparum [8]): 1% | Activity (ScN2a [2]): 5000 nM | Activity (ScN2a [9]): Non-toxic | EC50 (ScN2a [5]): 3000 nM

O=C(NCCCN1CCN(CCCNc2ccnc3cc(Cl)ccc23)CC1)c1cccc(Oc2ccccc2)c1
CC50 [1]: 5000 nM | Activity (ScN2a [2]): 300 nM | Selectivity index (ScN2a [3]): 3.75 | Activity (ScN2a [4]): 750 nM | EC50 (ScN2a [5]): 200 nM | Selectivity index (MRC5): 25

CCN(CC)CCCC(C)Nc1ccnc2cc(Cl)ccc12 (stereo unspecified) [CHLOROQUINE]
CC50 [1]: 50000 nM | Activity (ScN2a [2]): 10000 nM | Activity (ScN2a [9]): Non-toxic | EC50 (ScN2a [5]): 4000 nM

O=C(c1ccc2ccccc2c1)N(CCCN1CCN(CCCNc2ccnc3cc(Cl)ccc23)CC1)CC1CC1
inhibition at 0.1 µM (Plasmodium falciparum [8]): 23% | Activity (ScN2a [2]): 300 nM | Selectivity index (ScN2a [3]): 26.67 | Activity (ScN2a [4]): 2000 nM | EC50 (ScN2a [5]): 75 nM
